Values joined by “and” are separate entries in the source; they are usually repeats but may differ in a detail not shown here. Equal entries are not always repeated.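 Grown in 96-well plates, cells were treated for 48 hours with each compound at five concentrations. Insufficient inhibition: endpoint recorded as highest concentration tested. The concentration for 50% growth inhibition is given as GI50.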 Active and inactive are the calls of the source. Cut-off read from the data, not from the text of the source: active = GI50 up to about 1.1 µM and inactive = higher.
Columns and labels:
Experiment in all cases: NCI anticancer screen, dose series, 48 h
[1] = system: ACHN
[2] = system: MDA-MB-435
[3] = system: CAKI-1
[4] = system: T47D
[5] = system: KM12
[6] = system: TK-10
[7] = system: U-251
[8] = system: DU-145
[9] = system: MDA-MB-231
[10] = system: NCI/ADR-RES
[11] = system: MDA-N
[12] = system: BT-549
[13] = system: PC-3
[14] = system: KM-20L2
[15] = system: DLD-1
[16] = system: HOP-62
[17] = system: Malme-3M
[18] = system: DMS-114
[19] = system: SNB-78
[20] = system: M19-MEL

| SMILES | GI50 [1] | GI50 [2] | GI50 [3] | GI50 [4] | GI50 [5] | GI50 [6] | GI50 [7] | GI50 [8] | GI50 [9] | GI50 [10] | GI50 [11] | GI50 [12] | GI50 [13] | GI50 [14] | GI50 [15] | GI50 [16] | GI50 [17] | GI50 [18] | GI50 [19] | GI50 [20] |
| --- | --- | --- | --- | --- | --- | --- | --- | --- | --- | --- | --- | --- | --- | --- | --- | --- | --- | --- | --- | --- |
| CCOC1=NC(C(F)(F)F)(C(F)(F)F)N=C(N2CCOCC2)O1 | > 100 µM (inactive) | > 100 µM (inactive) | > 100 µM (inactive) | 27 µM (inactive) | > 100 µM (inactive) | > 100 µM (inactive) | > 100 µM (inactive) | > 100 µM (inactive) | > 100 µM (inactive) | > 100 µM (inactive) | > 100 µM (inactive) | > 100 µM (inactive) | > 100 µM (inactive) | – | – | – | – | – | – | – |
| CCOC(=O)c1ncoc1[C@H]1COC(C)(C)O1 | > 100 µM (inactive) | – | > 100 µM (inactive) | – | – | > 100 µM (inactive) | > 100 µM (inactive) | – | – | – | – | – | – | > 100 µM (inactive) | > 100 µM (inactive) | > 100 µM (inactive) | > 100 µM (inactive) | > 100 µM (inactive) | > 100 µM (inactive) | > 100 µM (inactive) |
| CCCCCCCCCCSCC(CO)NC(=O)/C=C/c1c(C)[nH]c(=O)[nH]c1=O (stereo not given) | – | – | – | – | 1.42 µM (inactive) and 2.05 µM (inactive) | – | 532 nM (active) and 355 nM (active) | – | – | > 50 µM (inactive) and > 42.8 µM (inactive) | – | – | – | 6.46 µM (inactive) and 3.37 µM (inactive) | 1.44 µM (inactive) and 1.38 µM (inactive) | 2.03 µM (inactive) and 3.24 µM (inactive) | 813 nM (active) and 703 nM (active) | 548 nM (active) and 637 nM (active) | 1.71 µM (inactive) and 1.9 µM (inactive) | 1.33 µM (inactive) and 1.06 µM (active) |
| COc1cccc(N2C(=O)CSC2c2c[nH]c3ccccc23)c1 (stereo not given) | – | > 100 µM (inactive) | – | > 100 µM (inactive) | > 100 µM (inactive) | > 100 µM (inactive) | > 100 µM (inactive) | > 100 µM (inactive) | > 100 µM (inactive) | – | > 100 µM (inactive) | > 100 µM (inactive) | > 100 µM (inactive) | – | – | > 100 µM (inactive) | – | – | – | – |
